{"source": "patent US20080119439A1", "about": "“Treatment and prevention of intestinal fibrosis” (Bayer Schering Pharma Aktiengesellschaft, priority 2006, published 2008)", "key": {"[1]": {"system": "chronic model of colon inflammation (TNBS-induced chronic colitis)", "test": "Study 1: chronic TNBS colitis, lipoxin A4 analog given daily together with TNBS", "type": "in vivo, BALB/c mice", "experimental": "(§1) A model of chronic inflammation induced by 7 week administration of 2,4,6-trinitrobenzenesulfonic acid (TNBS) in escalating manner was used in these studies. This model results in inflammation-driven fibrosis that associates with significant increase in intestinal content of collagen.\n(§2) The induction of chronic colitis was performed according the protocol proposed by Lawrance et al, Gastroenterology (2003) 125:1750-1761. Six- to eight-week-old female mice of the BALB/c strain were obtained from Charles River (Breeding Laboratories, Monza, Italy).\nIn a first in vivo experiment, BALB/c mice of the control group (n=7) received weekly 0.1 mL of saline solution by intracolonic injections. Mice of the TNBS group (n=15) were treated for 8 weeks with escalating doses (0.5 to 1.25 mg, with a 0.25 mg increase every two weeks) of TNBS in 30% ethanol by intracolonic injections at weekly intervals. Mice of TNBS+lipoxin A4 analog group (n=15) received the same weekly TNBS administration as the TNBS-only group plus 1 mg/kg of the lipoxin A4 analog daily by intragastric administration. Mice were examined weekly for weight loss, diarrhea and rectal bleeding. Two days after the last administration of TNBS, mice were killed and colons were removed and examined. The macroscopic appearance was analyzed considering the presence of indurations, edema, thickness and evidence of mucosal hemorrhage.\nNeutrophil infiltration in the colon was monitored by measuring MPO activity using a spectrophotometric assay with trimethylbenzidine (TMB) as a substrate according to a previously published method. Activity is expressed as U per mg protein.\nFor histologic examination, sections of the proximal, middle and distal colon from each animal were fixed in 10% formalin, embedded in paraffin, sectioned, and stained with haematoxylin and eosin (H&E) or Sirius Red. For the latter, sections were incubated for 30 minutes in 0.1% Sirius Red F3B containing saturated picric acid and 0.1% fast green. After rising twice with distilled water, sections were briefly dehydrated with 70% ethanol.\nImages from colon sections were acquired with a BX60 microscope (Olympus Co., Rome, Italy), digitalized using a SPOT-2 camera (Diagnostic Instruments Inc., Sterling Heights, Mich.) with a resolution of 1315×1033 pixels and analyzed using a computerized image analysis system (Image Acquisition System Ver.005, Delta Sistemi, Rome, Italy).\nSections from the colon of each animal were examined in a blinded fashion. The degree of the inflammation and fibrosis was scored accordingly with an established method (Lawrance et al., supra; Neurath et al., J. Exp. Med. (1995) 182:1281-1290). Briefly, inflammation was scored as absent, mild, moderate or severe depending on the density and extent of inflammatory infiltrates, loss of goblet cells, and bowel wall thickening. Also, the fibrosis was scored as absent, mild, moderate or severe on the basis of the density and extent of the Sirius red-positive connective tissue staining, compared with the water-control mice.\nQuantification of the expression of mouse gene in colon tissues and intestinal fibroblasts was performed by quantitative real-time polymerase chain reaction (RT-PCR) (Heid C A 1996), using sense and antisense primers indicated in Table 1. All PCR primers were designed using PRIMER3-OUTPUT software using published sequence data from the NCBI database. Total RNA was isolated (TRIzol reagent, Invitrogen srl, Milan, Italy) from specimens taken from distal colons and intestinal fibroblasts. One microgram of purified RNA was treated with Dnasel for 15 minutes at room temperature, followed by incubation at 95° C. for 5 minutes in the presence of 2.5 mmol/L EDTA. The RNA was reverse-transcribed with Superscript III (Invitrogen srl, Milan, Italy) in 20 μL reaction volume using random primers. […]"}, "[2]": {"system": "chronic model of colon inflammation (established TNBS colitis)", "test": "Study 2: established TNBS colitis, lipoxin A4 analog dosed orally after the third week of TNBS", "type": "in vivo, BALB/c mice", "details": "1 mg/kg orally, starting on week 3 after TNBS administration", "experimental": "as §1, §2\nTo test the influence of lipoxin analogs in the inflammatory and fibrotic response in animals with established colitis, in a second in vivo study lipoxin A4 analog (1 mg/kg) was dosed orally starting after the third week of administration of TNBS (same protocol as described above). Mice were examined weekly for weight loss, diarrhea and rectal bleeding. Two days after the last administration of TNBS, mice were killed and colons were removed and examined. The macroscopic appearance was analyzed considering the presence of indurations, edema, thickness and evidence of mucosal hemorrhage.\nNeutrophil infiltration in the colon was monitored by measuring MPO activity using a spectrophotometric assay with trimethylbenzidine (TMB) as a substrate according to a previously published method. Activity is expressed as U per mg protein. […]"}, "[3]": {"details": "1 mg/kg daily intragastric, seven weeks, quantitative RT-PCR"}}}
{"compound": "O=C([O-])COC[C@H](O)[C@H](O)/C=C/C=C/C#C/C=C/[C@H](O)COc1ccc(F)cc1.[Na+]", "note": "[lipoxin A4 analog, sodium 2-((2S,3R,4E,6E,10E,12S)-13-(4-fluorophenoxy)-2,3,12-trihydroxytrideca-4,6,10-trien-8-ynyloxy)acetate]", "values": [{"measurement": "colon fibrosis development, morphometric analysis of Sirius red-stained colon", "setting": "[1]; 1 mg/kg daily intragastric, administered for seven weeks, vs TNBS alone", "value": "significantly attenuated"}, {"measurement": "colon expression of TGFβ mRNA (marker of colon fibrosis)", "setting": "[1]; [3]", "value": "significantly attenuated"}, {"measurement": "colon expression of fibronectin mRNA (marker of colon fibrosis)", "setting": "[1]; [3]", "value": "significantly attenuated"}, {"measurement": "colon expression of α-SMA mRNA (marker of colon fibrosis)", "setting": "[1]; [3]", "value": "significantly attenuated"}, {"measurement": "colon expression of αI collagen mRNA (marker of colon fibrosis)", "setting": "[1]; [3]", "value": "significantly attenuated"}, {"measurement": "colon inflammation", "setting": "[1]; administered orally", "value": "attenuated"}, {"measurement": "TGBβ protein in colon", "setting": "[1]; in comparison to mice administered TNBS alone", "value": "reduced"}, {"measurement": "efficacy when administered in a therapeutic manner (inflammatory and fibrotic response)", "setting": "[2]", "value": "effective"}]}
